Results reported in patent publication US7070978B2, “Method for expressing and purifying proteins using budded baculovirus” (Toudai TLO, Ltd., priority 2001, dated 2006).

Biological target: S1P (Homo sapiens, UniProt Q14703)
Details: 10 mM EDTA; SREBP2-BV + S1P-BV, 5 mM calcium, 37° C. for 12 hours, Western blot with anti-serum R004
Procedure: Sf9 cells were infected with recombinant viruses of S1P or SREBP at MOI 5. 72 hours later, the BV fraction was recovered by centrifugation as in Examples 1 and 2, and then suspended in TBS buffer (10 mM Tris, 150 mM NaCl, pH7.5). BV suspended in TBS was subjected to a protein determination with a protein determination kit (Bio-Rad). Reaction solutions of SREBP2-BV as a substrate and S1P-BV as an enzyme were prepared to have respective final concentrations of 10 μg per reaction solution. In addition, calcium ions required for activation of S1P were added to the reaction solution at a concentration, as calcium acetate, which enables to measure activity. Calcium, EDTA (pH7.4) and EGTA (pH7.4) were added to BV solution, and then added with TBS buffer (pH7.4) to a reaction volume of 20 μl, followed by incubation at 37° C. for 12 hours. Following reaction, the solution was subjected to heat treatment with 5×SDS sample buffer at 95° C. for 10 minutes, subjected to 8% SDS-PAGE and Western blot using rabbit anti-serum R004 against the amino terminal of SREBP2.
BV expressing SREBP or S1P was mixed, incubated at 37° C. for 12 hours, and then allowed to react in the presence of 5 mM calcium.

Chain of S1P (Q14703 187-1052): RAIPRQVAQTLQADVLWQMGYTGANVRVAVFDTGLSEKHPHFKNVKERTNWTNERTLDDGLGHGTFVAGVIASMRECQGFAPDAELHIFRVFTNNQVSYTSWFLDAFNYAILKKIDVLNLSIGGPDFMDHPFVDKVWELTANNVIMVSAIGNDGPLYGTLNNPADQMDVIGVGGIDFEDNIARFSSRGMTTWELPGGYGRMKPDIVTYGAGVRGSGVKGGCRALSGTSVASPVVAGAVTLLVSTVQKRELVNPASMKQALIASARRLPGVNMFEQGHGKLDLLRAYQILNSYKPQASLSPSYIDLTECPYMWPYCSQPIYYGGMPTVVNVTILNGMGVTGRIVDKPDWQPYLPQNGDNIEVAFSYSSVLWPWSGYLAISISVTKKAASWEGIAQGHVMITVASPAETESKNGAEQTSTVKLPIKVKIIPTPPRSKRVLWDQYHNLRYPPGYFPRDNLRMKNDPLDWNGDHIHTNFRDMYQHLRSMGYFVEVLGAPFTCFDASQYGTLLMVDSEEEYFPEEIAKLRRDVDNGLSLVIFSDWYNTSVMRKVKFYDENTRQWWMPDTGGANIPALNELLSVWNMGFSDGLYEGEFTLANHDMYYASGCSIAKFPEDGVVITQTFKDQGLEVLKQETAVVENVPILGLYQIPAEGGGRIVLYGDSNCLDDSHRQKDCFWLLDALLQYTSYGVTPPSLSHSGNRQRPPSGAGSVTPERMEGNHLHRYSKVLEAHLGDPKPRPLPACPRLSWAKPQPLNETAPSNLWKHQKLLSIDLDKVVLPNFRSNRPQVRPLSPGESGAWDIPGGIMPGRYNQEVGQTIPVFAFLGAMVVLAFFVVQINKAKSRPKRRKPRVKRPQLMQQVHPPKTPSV

## O=C(O)CN(CCN(CC(=O)O)CC(=O)O)CC(=O)O [EDTA]
  inhibition of degradation (cleavage) of SREBP2 by S1P: completely inhibited
